# PMC10112938 (Hypertension (Dallas, Tex. : 1979), 2023)
# What was measured:
# adenosine A2B receptor [1] = target: T1, adenosine A2B receptor (Homo sapiens, UniProt P29275); assay: HTRF […]', […]'-cAMP assay in HEK293 cells expressing human A2B receptors; type: cell-based
# T1 sequence (P29275 1-332): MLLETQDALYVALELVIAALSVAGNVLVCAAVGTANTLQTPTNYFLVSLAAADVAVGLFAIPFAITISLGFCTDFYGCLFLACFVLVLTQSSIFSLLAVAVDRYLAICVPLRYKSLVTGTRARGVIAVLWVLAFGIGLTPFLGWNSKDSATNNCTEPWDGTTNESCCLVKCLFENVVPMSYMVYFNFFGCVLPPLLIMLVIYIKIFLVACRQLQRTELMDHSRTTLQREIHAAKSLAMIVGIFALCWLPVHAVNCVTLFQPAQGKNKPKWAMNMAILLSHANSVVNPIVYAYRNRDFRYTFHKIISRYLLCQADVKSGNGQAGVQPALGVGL
# adenosine A2B receptor [2] = target: T1, adenosine A2B receptor; assay: as above; type: cell-based; remark: listed apart in the source
Compound,"HTRF 3',5'-cAMP assay in HEK293 cells expressing human A2B receptors; antagonism (adenosine A2B receptor [1]) [µmol/L]","HTRF 3',5'-cAMP assay in HEK293 cells expressing human A2B receptors; response a (adenosine A2B receptor [2]) [µmol/L]"
CCCn1c(=O)c2[nH]c(-c3ccc(OCC(=O)Nc4ccc(C#N)cc4)cc3)nc2n(CCC)c1=O [MRS 1754],1,–
O=c1[nH]cnc2c1ncn2[C@@H]1O[C@H](CO)[C@@H](O)[C@H]1O [inosine],–,3 to 10
